{"source": "ChEMBL document CHEMBL5725304", "about": "“3,4-dihydro-2H-isoquinoline-1-one and 2,3-dihydro-isoindol-1-one compounds” (2017)", "key": {"[1]": {"biological_target": "T1, Cytochrome P450 11B1, mitochondrial (Homo sapiens, UniProt P15538)", "T1 sequence (P15538 whole entry)": "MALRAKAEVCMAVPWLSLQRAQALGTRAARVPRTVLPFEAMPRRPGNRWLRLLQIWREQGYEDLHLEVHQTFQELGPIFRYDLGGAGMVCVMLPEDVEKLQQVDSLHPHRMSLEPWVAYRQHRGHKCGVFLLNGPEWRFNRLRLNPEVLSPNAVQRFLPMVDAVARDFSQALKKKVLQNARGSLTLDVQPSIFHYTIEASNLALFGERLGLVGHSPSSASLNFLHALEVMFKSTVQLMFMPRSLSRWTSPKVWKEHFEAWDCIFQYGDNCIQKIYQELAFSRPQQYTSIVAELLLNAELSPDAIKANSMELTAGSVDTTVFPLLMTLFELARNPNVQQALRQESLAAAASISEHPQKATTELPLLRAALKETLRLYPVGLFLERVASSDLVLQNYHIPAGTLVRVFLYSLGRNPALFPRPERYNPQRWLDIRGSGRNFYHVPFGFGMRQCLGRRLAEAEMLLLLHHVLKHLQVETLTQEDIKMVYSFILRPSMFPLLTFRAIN", "experiment": "(§1) Cellular Enzyme Assay: G-402 cells expressing CYP11 constructs were established as described above and maintained in McCoy's 5a Medium Modified, ATCC Catalog No. 30-2007 containing 10% FCS and 400 ug/ml G418 (Geneticin) at 37° C. under an atmosphere of 5% CO2/95% air. Cellular enzyme assays were performed in DMEM/F12 medium containing 2.5% charcoal treated FCS and appropriate concentration of substrate (0.3-10 uM 11-Deoxycorticosterone, 11-Deoxycortisol or Corticosterone). For assaying enzymatic activity, cells were plated onto 96 well plates and incubated for 16 h. An aliquot of the supernatant is then transferred and analyzed for the concentration of the expected product (Aldosterone for CYP11B2; Cortisol for CYP11B1). The concentrations of these steroids can be determined using HTRF assays from CisBio analyzing either Aldosterone or Cortisol."}, "[2]": {"biological_target": "T2, Cytochrome P450 11B2, mitochondrial (Homo sapiens, UniProt P19099)", "T2 sequence (P19099 whole entry)": "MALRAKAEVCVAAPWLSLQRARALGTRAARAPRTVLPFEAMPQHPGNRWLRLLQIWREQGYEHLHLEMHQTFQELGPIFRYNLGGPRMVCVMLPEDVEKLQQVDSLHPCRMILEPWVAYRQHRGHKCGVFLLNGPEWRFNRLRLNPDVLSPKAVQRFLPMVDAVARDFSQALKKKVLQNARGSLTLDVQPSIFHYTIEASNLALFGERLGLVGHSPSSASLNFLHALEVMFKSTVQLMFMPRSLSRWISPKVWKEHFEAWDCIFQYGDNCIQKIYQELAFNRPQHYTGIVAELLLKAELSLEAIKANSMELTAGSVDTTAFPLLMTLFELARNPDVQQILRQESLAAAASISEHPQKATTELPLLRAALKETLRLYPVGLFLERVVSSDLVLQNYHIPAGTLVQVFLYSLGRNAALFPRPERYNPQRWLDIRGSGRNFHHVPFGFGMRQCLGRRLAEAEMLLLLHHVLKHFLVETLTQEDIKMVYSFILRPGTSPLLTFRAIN", "experiment": "as §1"}}, "note": "“And” between values parts separate entries of the source, which are not always exact repeats. Equal values may be shown once.", "data": [{"compound": "CCS(=O)(=O)N1CCC(N(C)c2cncc(N3C(=O)c4ccc(Cl)cc4C3(C)C)c2)C1", "note": "(single isomer, unassigned)", "values": [{"measurement": "EC50", "setting": "[1]", "result": "188 nM and 124 nM"}, {"measurement": "EC50", "setting": "[2]", "result": "1 nM and 0.6 nM"}]}]}
